Source: patent US9585962B1, “Treatment for actinic keratoses” (priority 2013, dated 2017)

Test system: actinic keratoses
Conditions: 0.1% in a dermatologically acceptable cream base

In the case of `COc1cc2c(c(OC)c1OC)-c1ccc(OC)c(=O)cc1[C@@H](NC(C)=O)CC2` [colchicine], the actinic keratoses cleared is reported as 35-40% and the skin irritation is reported as “significant level of skin irritation”.
